In patent US12358919B2, “Antibacterial compounds” (Universita' degli Studi di Siena, priority 2019, dated 2025):

Tests used:
[1] = test system: K. pneumoniae SI-27; test: Chequerboard analysis with polymyxin E1 (average FIC index); format: cell-based, Klebsiella pneumoniae; conditions: K. pneumoniae SI-27 (colistin-resistant); compound + polymyxin E1
[2] = test system: Klebsiella pneumoniae ATCC 13833; test: microbe, parasite or virus in culture; format: cell-based
Description: (§1) Growth inhibition or killing of bacteria was investigated using conventional methods widely described in the scientific literature. Parameters such as the Minimum Inhibitory Concentration (MIC) were determined as described in Clinical Laboratory Standard Institute (CLSI) document M07 “Methods for Dilution Antimicrobial Susceptibility Tests for Bacteria That Grow Aerobically, 11th Edition” (2018). Synergistic activity of the compounds described in the present specification were determined by measuring the variation of the MIC's compound in the absence and presence of a sub-inhibitory concentration of a suitable antibacterial agent, such as polymyxin E1. Furthermore, the Fractional Inhibitory Concentrations (FICs) were measured using a chequerboard analysis to determine the average FIC index (FICI), whose value is known to characterize the interaction between two compounds and/or drugs (≤0.5, synergistic interaction; >0.5 and <2, no interaction, additive effect; ≥2, antagonistic interaction). Furthermore, the selectivity of the compounds was investigated by measuring their cytotoxic effect on mammalian cell lines (e.g. HeLa cells).
(§2) Several methods were used to investigate the synergistic activity of the compounds, including (a) the determination of the MIC in the presence of a sub-inhibitory concentration of a suitable antibacterial agent, (b) the determination of the average FICI using a chequerboard analysis and (c) the time-kill curve analysis of a suitable agent (at a sub-inhibitory concentration) in the absence and presence of the pyrazolo[4,3-b]pyridin-6-carboxamide compound at a fixed concentration of 2 or 8 mg/L.
(§3) The MIC of the compound was determined alone and in the presence of a fixed and sub-inhibitory concentration of a suitable antibacterial agent of the polymyxin class, such as polymyxin E1 (colistin). The potentiation fold was computed as the ratio MICcompound/MICcompound+polymyxin E. Tested organisms included Escherichia coli CCUG^TKlebsiella pneumoniae ATCC 13833 and Acinetobacter baumannii ATCC 17978, which show a colistin MIC of 0.5, 0.5 and 1 mg/L, respectively.

[3] = test system: Escherichia coli CCUG^T; test: microbe, parasite or virus in culture; format: cell-based; conditions: Escherichia coli
Description: as §1, §2, §3

[4] = test system: Acinetobacter baumannii ATCC 17978; test: microbe, parasite or virus in culture; format: cell-based
Description: as §1, §2, §3

[5] = test system: K. pneumoniae SI-4B; test: Chequerboard analysis with polymyxin E1 (average FIC index); format: cell-based, Klebsiella pneumoniae; conditions: K. pneumoniae SI-4B (colistin-resistant); compound + polymyxin E1

CCCCn1c(=O)c(C(=O)NC23CC4CC(CC(C4)C2)C3)c(O)c2nn(CCO)cc21 [Im, N-(Adamantan-1-yl)-4-(1-butyl)-4,5-dihydro-7-hydroxy-2-(2-hydroxyethyl)-5-oxo-2H-pyrazolo[4,3-b]pyridin-6-carboxamide]
Average FIC index [1]: 0.41
Potentiation fold ([2]; K. pneumoniae ATCC 13833, ratio MICcompound/MICcompound+polymyxin E): ≥64
MIC in presence of colistin ([2]; K. pneumoniae ATCC 13833, with 0.25xMIC polymyxin E1 (0.12 mg/L)): 8 µg/mL
MIC ([2]; Klebsiella pneumoniae, ATCC13833): > 512 µg/mL
MIC [3]: > 512 µg/mL
Potentiation fold ([4]; A. baumannii ATCC 17978, ratio MICcompound/MICcompound+polymyxin E): ≥64
MIC in presence of colistin ([4]; A. baumannii ATCC 17978, with 0.25xMIC polymyxin E1 (0.25 mg/L)): 8 µg/mL
MIC ([4]; Acinetobacter baumannii, ATCC17978): > 512 µg/mL
Average FIC index [5]: 0.31
